# Reference: patent publication US9868727B2, “Factor XIa inhibitors” (Merck Sharp & Dohme Corp., priority 2014, dated 2018)
# pIC50: −log10 of the molar value.
# Experiments:
# [1] = target: T1, purified human Factor XIa (Homo sapiens, UniProt P03951); test: Factor XIa Assay; format: biochemical; conditions: fluorogenic substrate Z-Gly-Pro-Arg-AFC 100 μM, 40 pM enzyme, pH 7.4, read-out: F11a IC50
# T1 construct: purified human Factor XIa; purchased Sekisui Diagnostics
# Method: The effectiveness of a compound of the present invention as an inhibitor of Coagulation Factor XIa can be determined using a relevant purified serine protease, and an appropriate synthetic substrate. The rate of hydrolysis of the chromogenic or fluorogenic substrate by the relevant serine protease was measured both in the absence and presence of compounds of the present invention. Assays were conducted at room temperature or at 37° C. […] A decrease in the rate of fluorescence change in the presence of inhibitor is indicative of enzyme inhibition. Such methods are known to one skilled in the art. […]
# Factor XIa determinations were made in 50 mM HEPES buffer at pH 7.4 containing 150 mM NaCl, 5 mM CaCl2, and 0.1% PEG 8000 (polyethylene glycol; JT Baker or Fisher Scientific). Determinations were made using purified human Factor XIa at a final concentration of 40 pM (Sekisui Diagnostics) and he synthetic substrate, Z-Gly-Pro-Arg-AFC, TFA salt (Sigma #C0980) at a concentration of 100 μM.
# Activity assays were performed by diluting a stock solution of substrate at least tenfold to a final concentration ≦0.1 Km into a solution containing enzyme or enzyme equilibrated with inhibitor. Times required to achieve equilibration between enzyme and inhibitor were determined in control experiments. Initial velocities of product formation in the absence (VO) or presence of inhibitor (Vi) were measured. Assuming competitive inhibition, and that unity is negligible compared Km/[S], [I]/e, and [I]/e (where [S], [I], and e respectively represent the total concentrations, of substrate, inhibitor and enzyme), the equilibrium constant (Ki) for dissociation of the inhibitor from the enzyme can be obtained from the dependence of VO/Vi on [I] shown in the following equation.
# [2] = target: T2, purified Human plasma kallikrein (Homo sapiens, UniProt P03952); test: Kallikrein Assay; format: biochemical; conditions: Plasma Kallekrein IC50; fluorogenic substrate Acetyl-K-P-R-AFC, 0.5 nM enzyme, pH 7.4; read-out: PK IC50
# T2 construct: yields a heavy chain (371 amino acids) and a light chain (248 amino acids); purchased Enzyme Research Laboratories
# T2 sequence (P03952 391-638 limits assumed): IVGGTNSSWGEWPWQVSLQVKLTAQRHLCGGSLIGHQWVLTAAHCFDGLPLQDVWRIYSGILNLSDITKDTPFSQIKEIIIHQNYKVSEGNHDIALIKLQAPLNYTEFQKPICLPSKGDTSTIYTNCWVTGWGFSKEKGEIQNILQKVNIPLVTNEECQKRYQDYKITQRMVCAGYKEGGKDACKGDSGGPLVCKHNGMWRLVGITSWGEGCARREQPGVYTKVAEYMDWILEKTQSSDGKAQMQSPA
# T2 sequence (P03952 20-390 partner limits assumed): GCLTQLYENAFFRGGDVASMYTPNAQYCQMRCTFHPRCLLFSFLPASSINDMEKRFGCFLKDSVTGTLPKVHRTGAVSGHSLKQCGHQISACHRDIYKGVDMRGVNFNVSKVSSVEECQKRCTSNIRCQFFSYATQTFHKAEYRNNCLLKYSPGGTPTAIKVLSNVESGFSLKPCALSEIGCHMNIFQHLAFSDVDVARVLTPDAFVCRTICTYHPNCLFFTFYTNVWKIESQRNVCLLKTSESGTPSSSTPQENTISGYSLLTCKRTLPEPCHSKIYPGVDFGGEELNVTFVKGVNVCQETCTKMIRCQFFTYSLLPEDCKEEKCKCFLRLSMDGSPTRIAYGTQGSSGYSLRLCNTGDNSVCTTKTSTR
# Method: The effectiveness of a compound of the present invention as an inhibitor of Kallikrein can be determined using a relevant purified serine protease, and an appropriate synthetic substrate. The rate of hydrolysis of the chromogenic or fluorogenic substrate by the relevant serine protease was measured both in the absence and presence of compounds of the present invention. Assays were conducted at room temperature or at 37° C. […] A decrease in the rate of fluorescence change in the presence of inhibitor is indicative of enzyme inhibition. Such methods are known to one skilled in the art. The results of this assay are expressed as the inhibitory constant, K1.
# Kallikrein determinations were made in 50 mM HEPES buffer at pH 7.4 containing 150 mM NaCl, 5 mM CaCl2, and 0.1% PEG 8000 (polyethylene glycol; Fisher Scientific). Determinations were made using purified Human plasma kallikrein at a final concentration of 0.5 nM (Enzyme Research Laboratories) and the synthetic substrate, Acetyl-K—P—R-AFC (Sigma # C6608) at a concentration of […].
# Times required to achieve equilibration between enzyme and inhibitor were determined in control experiments. The reactions were performed under linear progress curve conditions and fluorescence increase measured at 405 Ex/510 Em nm. […] IC50 was determined by inflection point from a four parameter logistic curve fit. Ki was calculated using the Cheng Prusoff equation, Ki=IC50/(1+([S]/Km)).
# T1 sequence (P03951 388-625 limits assumed): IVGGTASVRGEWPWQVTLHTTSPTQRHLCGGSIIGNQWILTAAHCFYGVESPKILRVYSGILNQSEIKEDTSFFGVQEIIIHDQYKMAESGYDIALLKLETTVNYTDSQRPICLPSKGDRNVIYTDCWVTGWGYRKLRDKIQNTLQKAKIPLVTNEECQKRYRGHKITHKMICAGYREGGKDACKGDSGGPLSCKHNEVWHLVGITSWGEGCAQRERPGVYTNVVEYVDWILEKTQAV
# T1 sequence (P03951 19-387 partner limits assumed): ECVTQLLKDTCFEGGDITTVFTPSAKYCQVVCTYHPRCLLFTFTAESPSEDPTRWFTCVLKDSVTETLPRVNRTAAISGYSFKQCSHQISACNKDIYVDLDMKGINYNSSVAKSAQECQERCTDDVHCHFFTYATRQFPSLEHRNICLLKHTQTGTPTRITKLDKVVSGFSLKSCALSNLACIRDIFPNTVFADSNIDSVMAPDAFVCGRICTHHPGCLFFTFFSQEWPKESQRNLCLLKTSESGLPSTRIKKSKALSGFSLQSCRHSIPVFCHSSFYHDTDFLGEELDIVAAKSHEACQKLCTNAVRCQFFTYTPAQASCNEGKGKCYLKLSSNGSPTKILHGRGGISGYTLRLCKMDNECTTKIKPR
pIC50 [1],pIC50 [2],SMILES
7.95,7.99,"COC(=O)Nc1ccc(-c2c[nH]c(C(Cc3ccc(F)cc3)c3ccc(-c4c(C(F)F)ccc(Cl)c4F)c[n+]3[O-])n2)cc1 (racemic) [Example 13, 5-(3-Chloro-6-(difluoromethyl)-2-fluorophenyl)-2-(2-(4-fluorophenyl)-1-(4-(4-((methoxycarbonyl)amino)phenyl)-1H-imidazol-2-yl)ethyl)pyridine 1-oxide]"
8.19,6.68,COC(=O)Nc1ccc(-c2cnc(C(CC3CC3)c3ccc(-c4cc(Cl)ccc4-n4cc(Cl)nn4)c[n+]3[O-])[nH]2)cc1 (racemic) [Example 67]
7.29,5.58,COC(=O)Nc1ccc(-c2cnc(C(CC3CC3)c3ccc(-c4cc(Cl)ccc4-c4csnn4)c[n+]3[O-])[nH]2)cc1 (racemic) [Example 72]
8.92,7.17,"COC(=O)Nc1ccc(-c2nnc(C(Cc3ccccc3)c3ccc(-c4cc(Cl)ccc4-n4cnnn4)c[n+]3[O-])o2)cc1 (racemic) [Example 83, 5-(5-chloro-2-(1H-tetrazol-1-yl)phenyl)-2-(1-(5-(4-((methoxycarbonyl)amino)phenyl)-1,3,4-oxadiazol-2-yl)-2-phenylethyl)pyridine 1-oxide]"
8.54,7.56,"[O-][n+]1cc(-c2cc(Cl)ccc2-n2cnnn2)ccc1C(Cc1ccccc1)c1nc(-c2cccc(F)c2)c[nH]1 (single isomer, unassigned) [Example 3]"
7.41,6.20,"[O-][n+]1cc(-c2cc(Cl)ccc2-n2cnnn2)ccc1C(Cc1ccccc1)c1nc(-c2cccc(F)c2)c[nH]1 (single isomer, unassigned) [Example 4]"
7.37,6.86,"COC(=O)Nc1ccc(-c2c[nH]c(C(Cc3ccccc3)c3ccc(-c4c(F)ccc(Cl)c4F)c[n+]3[O-])n2)cc1 (single isomer, unassigned) [Example 5]"
7.99,6.33,"O=C(O)c1ccc(-c2cnc(C(Cc3ccccc3)c3ccc(-c4cc(Cl)ccc4-n4cnnn4)c[n+]3[O-])[nH]2)cc1 (single isomer, unassigned) [Example 7]"
9.17,7.59,"O=C(O)c1ccc(-c2cnc(C(Cc3ccccc3)c3ccc(-c4cc(Cl)ccc4-n4cnnn4)c[n+]3[O-])[nH]2)cc1 (single isomer, unassigned) [Example 8]"
9.72,9.03,"O=C(O)c1scc(-c2c[nH]c(C(Cc3ccccc3)c3ccc(-c4cc(Cl)ccc4-n4cnnn4)c[n+]3[O-])n2)c1F (single isomer, unassigned) [Example 9]"
8.00,6.93,"O=C(O)c1scc(-c2c[nH]c(C(Cc3ccccc3)c3ccc(-c4cc(Cl)ccc4-n4cnnn4)c[n+]3[O-])n2)c1F (single isomer, unassigned) [Example 10]"
8.73,8.00,"COC(=O)Nc1ccc(-c2c[nH]c(C(Cc3ccc(F)cc3)c3ccc(-c4cc(Cl)ccc4C(F)F)c[n+]3[O-])n2)cc1 (single isomer, unassigned) [Example 11, 5-(5-chloro-2-(difluoromethyl)phenyl)-2-(2-(4-fluorophenyl)-1-(4-(4-((methoxycarbonyl)amino)phenyl)-1H-imidazol-2-yl)ethyl)pyridine 1-oxide]"
8.42,9.11,"[O-][n+]1cc(-c2cc(Cl)ccc2-n2cnnn2)ccc1C(Cc1ccc(F)cc1)c1nc(-c2ccc(F)cc2)c[nH]1 (single isomer, unassigned) [Example 16]"
7.83,6.39,"[O-][n+]1cc(-c2cc(Cl)ccc2-n2cnnn2)ccc1C(Cc1ccc(F)cc1)c1nc(-c2ccc(F)cc2)c[nH]1 (single isomer, unassigned) [Example 17]"
8.81,7.54,"N#Cc1ccc(-c2c[nH]c(C(Cc3ccc(F)cc3)c3ccc(-c4cc(Cl)ccc4-n4cnnn4)c[n+]3[O-])n2)cc1 (single isomer, unassigned) [Example 20]"
8.19,6.71,"[O-][n+]1cc(-c2cc(Cl)ccc2-n2cnnn2)ccc1C(Cc1ccc(F)cc1)c1nc(-c2ccc(Cl)cc2)c[nH]1 (single isomer, unassigned) [Example 22]"
8.55,6.65,"N#Cc1ccc(-c2cnc(C(CC3CC3)c3ccc(-c4cc(Cl)ccc4-n4cnnn4)c[n+]3[O-])[nH]2)cc1 (single isomer, unassigned) [Example 29, 4-[2-(1-{5-[5-chloro-2-(1H-tetrazol-1-yl)phenyl]-1-oxidopyridin-2-yl}-2-cyclopropylethyl)-1H-imidazol-5-yl]benzonitrile]"
7.83,6.37,"[O-][n+]1cc(-c2cc(Cl)ccc2-n2cnnn2)ccc1C(CC1CC1)c1ncc(-c2cccc(F)c2)[nH]1 (single isomer, unassigned) [Example 32]"
7.72,6.20,"COC(=O)Nc1ccc(-c2cnc(C(CC3CC3)c3ccc(-c4cc(Cl)ccc4-n4cnnn4)c[n+]3[O-])[nH]2)c(C)c1 (single isomer, unassigned) [Example 33]"
9.62,7.50,"COC(=O)Nc1ccc(-c2cnc(C(CC3CC3)c3ccc(-c4cc(Cl)ccc4-n4cnnn4)c[n+]3[O-])[nH]2)c(C)c1 (single isomer, unassigned) [Example 34]"
7.56,6.42,"N#Cc1cccc(-c2cnc(C(CC3CC3)c3ccc(-c4cc(Cl)ccc4-n4cnnn4)c[n+]3[O-])[nH]2)c1 (single isomer, unassigned) [Example 36]"
9.32,7.41,"COC(=O)Nc1ccc(-c2cnc(C(CC3CC3)c3ccc(-c4cc(Cl)ccc4-n4cnnn4)c[n+]3[O-])[nH]2)c(F)c1 (single isomer, unassigned) [Example 38]"
8.82,7.41,"COC(=O)Nc1ccc(-c2cnc(C(CC3CC3)c3ccc(-c4cc(Cl)ccc4-n4cnnn4)c[n+]3[O-])[nH]2)cc1F (single isomer, unassigned) [Example 40]"
7.63,6.40,"COC(=O)Nc1ccc(-c2cnc(C(CC3CC3)c3ccc(-c4cc(Cl)ccc4-n4cnnn4)c[n+]3[O-])[nH]2)c(Cl)c1 (single isomer, unassigned) [Example 41]"
9.24,7.55,"COC(=O)Nc1ccc(-c2cnc(C(CC3CC3)c3ccc(-c4cc(Cl)ccc4-n4cnnn4)c[n+]3[O-])[nH]2)c(Cl)c1 (single isomer, unassigned) [Example 42]"
7.32,6.05,"COC(=O)Nc1ccc(-c2cnc(C(CC3(C)CC3)c3ccc(-c4cc(Cl)ccc4-n4cnnn4)c[n+]3[O-])[nH]2)cc1 (single isomer, unassigned) [Example 43]"
8.82,7.83,"COC(=O)Nc1ccc(-c2cnc(C(CC3(C)CC3)c3ccc(-c4cc(Cl)ccc4-n4cnnn4)c[n+]3[O-])[nH]2)cc1 (single isomer, unassigned) [Example 44]"
,6.64,"COC(=O)Nc1ccc(-c2c[nH]c(C(CC3CC3)c3ccc(-c4c(-n5cnnn5)ccc(Cl)c4F)c[n+]3[O-])n2)cc1 (single isomer, unassigned) [Example 63, 5-(3-chloro-2-fluoro-6-(1H-tetrazol-1-yl)phenyl)-2-(2-cyclopropyl-1-(4-(4-((methoxycarbonyl)amino)phenyl)-1H-imidazol-2-yl)ethyl)pyridine 1-oxide]"
,8.25,"COC(=O)Nc1ccc(-c2c[nH]c(C(CC3CC3)c3ccc(-c4c(-n5cnnn5)ccc(Cl)c4F)c[n+]3[O-])n2)cc1 (single isomer, unassigned) [Example 64, 5-(3-chloro-2-fluoro-6-(1H-tetrazol-1-yl)phenyl)-2-(2-cyclopropyl-1-(4-(4-((methoxycarbonyl)amino)phenyl)-1H-imidazol-2-yl)ethyl)pyridine 1-oxide]"
